Measurements taken from US10405547B2, “Substituted cyclic amides as herbicides” (FMC Corporation, priority 2015, dated 2019).

Legend:
Assay type in all cases: in vivo
[1] = test system: barnyardgrass (Echinochloa crus-galli); test: Test A preemergence, barnyardgrass; conditions: 0 to 100 scale (0 no effect, 100 complete control)
Text: (§1) Test A Seeds of plant species selected from barnyardgrass (Echinochloa crus-galli), kochia (Kochia scoparia), ragweed (common ragweed, Ambrosia elatior), ryegrass, Italian (Lolium multiflorum), foxtail, giant (Setaria faberii), and pigweed (Amaranthus retroflexus), were planted into a blend of loam soil and sand and treated preemergence with a directed soil spray using test chemicals formulated in a non-phytotoxic solvent mixture which included a surfactant.
(§2) At the same time, plants selected from these weed species and also blackgrass (Alopecurus myosuroides), galium (catchweed bedstraw, Galium aparine), wheat (Triticum aestivum), and corn (Zea mays) were planted in pots containing the same blend of loam soil and sand and treated with postemergence applications of test chemicals formulated in the same manner. Plants ranged in height from 2 to 10 cm and were in the one- to two-leaf stage for the postemergence treatment. Treated plants and untreated controls were maintained in a greenhouse for approximately 10 days, after which time all treated plants were compared to untreated controls and visually evaluated for injury. Plant response ratings, summarized in Table A, are based on a 0 to 100 scale where 0 is no effect and 100 is complete control. A dash (-) response means no test result.

kochia (Kochia scoparia) [2] = test: Test A preemergence, kochia; conditions: 0 to 100 scale (0 no effect, 100 complete control)
Text: as §1, §2

[3] = test system: ragweed (common ragweed, Ambrosia elatior); test: Test A preemergence, ragweed; conditions: 0 to 100 scale (0 no effect, 100 complete control)
Text: as §1, §2

[4] = test system: ryegrass, Italian (Lolium multiflorum); test: Test A preemergence, Italian ryegrass; conditions: 0 to 100 scale (0 no effect, 100 complete control)
Text: as §1, §2

[5] = test system: foxtail, giant (Setaria faberii); test: Test A preemergence, giant foxtail; conditions: 0 to 100 scale (0 no effect, 100 complete control)
Text: as §1, §2

[6] = test system: pigweed (Amaranthus retroflexus); test: Test A preemergence, pigweed; conditions: 0 to 100 scale (0 no effect, 100 complete control)
Text: as §1, §2

[7] = test system: barnyardgrass (Echinochloa crus-galli); test: Test A postemergence, barnyardgrass; conditions: visual injury, 0 to 100 scale (0 no effect, 100 complete control), approximately 10 days
Text: as §1, §2

kochia (Kochia scoparia) [8] = test: Test A postemergence, kochia; conditions: visual injury, 0 to 100 scale (0 no effect, 100 complete control), approximately 10 days
Text: as §1, §2

[9] = test system: ragweed (common ragweed, Ambrosia elatior); test: Test A postemergence, ragweed; conditions: visual injury, 0 to 100 scale (0 no effect, 100 complete control), approximately 10 days
Text: as §1, §2

[10] = test system: ryegrass, Italian (Lolium multiflorum); test: Test A postemergence, Italian ryegrass; conditions: visual injury, 0 to 100 scale (0 no effect, 100 complete control), approximately 10 days
Text: as §1, §2

[11] = test system: foxtail, giant (Setaria faberii); test: Test A postemergence, giant foxtail; conditions: visual injury, 0 to 100 scale (0 no effect, 100 complete control), approximately 10 days
Text: as §1, §2

[12] = test system: pigweed (Amaranthus retroflexus); test: Test A postemergence, pigweed; conditions: visual injury, 0 to 100 scale (0 no effect, 100 complete control), approximately 10 days
Text: as §1, §2

[13] = test system: blackgrass (Alopecurus myosuroides); test: Test A postemergence, blackgrass; conditions: visual injury, 0 to 100 scale (0 no effect, 100 complete control), approximately 10 days
Text: as §1, §2

[14] = test system: galium (catchweed bedstraw, Galium aparine); test: Test A postemergence, galium; conditions: visual injury, 0 to 100 scale (0 no effect, 100 complete control), approximately 10 days
Text: as §1, §2

[15] = test system: wheat (Triticum aestivum); test: Test A postemergence, wheat; conditions: visual injury, 0 to 100 scale (0 no effect, 100 complete control), approximately 10 days
Text: as §1, §2

corn (Zea mays) = test: Test A postemergence, corn; conditions: visual injury, 0 to 100 scale (0 no effect, 100 complete control), approximately 10 days
Text: as §1, §2

Compound	Plant response rating, Barnyardgrass ([1]; 125 g ai/ha)	Plant response rating, Barnyardgrass ([1]; 500 g ai/ha)	Plant response rating, Kochia (kochia (Kochia scoparia) [2]; 125 g ai/ha)	Plant response rating, Kochia (kochia (Kochia scoparia) [2]; 500 g ai/ha)	Plant response rating, Ragweed ([3]; 125 g ai/ha)	Plant response rating, Ragweed ([3]; 500 g ai/ha)	Plant response rating, Ryegrass, Italian ([4]; 125 g ai/ha)	Plant response rating, Ryegrass, Italian ([4]; 500 g ai/ha)	Plant response rating, Foxtail, Giant ([5]; 125 g ai/ha)	Plant response rating, Foxtail, Giant ([5]; 500 g ai/ha)	Plant response rating, Pigweed ([6]; 125 g ai/ha)	Plant response rating, Pigweed ([6]; 500 g ai/ha)	Plant response rating, Barnyardgrass ([7]; 125 g ai/ha)	Plant response rating, Barnyardgrass ([7]; 500 g ai/ha)	Plant response rating, Kochia (kochia (Kochia scoparia) [8]; 125 g ai/ha)	Plant response rating, Kochia (kochia (Kochia scoparia) [8]; 500 g ai/ha)	Plant response rating, Ragweed ([9]; 125 g ai/ha)	Plant response rating, Ragweed ([9]; 500 g ai/ha)	Plant response rating, Ryegrass, Italian ([10]; 125 g ai/ha)	Plant response rating, Ryegrass, Italian ([10]; 500 g ai/ha)	also measured
O=C1NCC(c2cccc(Cn3cncn3)c2)C1C(=O)Nc1ccccc1F (centres unmarked) [Compound 31]	0	0	0	0	0	0	0	0	0	0	0	0	0	0	0	0	0	0	0	0	Plant response rating, Foxtail, Giant ([11]; 125 g ai/ha): 0; Plant response rating, Foxtail, Giant ([11]; 500 g ai/ha): 0; Plant response rating, Pigweed ([12]; 125 g ai/ha): 0; Plant response rating, Pigweed ([12]; 500 g ai/ha): 0; Plant response rating, Blackgrass ([13]; 125 g ai/ha): 0; Plant response rating, Blackgrass ([13]; 500 g ai/ha): 0; Plant response rating, Galium ([14]; 125 g ai/ha): 0; Plant response rating, Galium ([14]; 500 g ai/ha): 20; Plant response rating, Wheat ([15]; 125 g ai/ha): 0; Plant response rating, Wheat ([15]; 500 g ai/ha): 0; Plant response rating, Corn (corn (Zea mays); 125 g ai/ha): 0; Plant response rating, Corn (corn (Zea mays); 500 g ai/ha): 0
O=C1NCC(c2cccc(Cn3cccn3)c2)C1C(=O)Nc1ccc(F)cc1F (centres unmarked) [Compound 28]	0	30	0	0	0	0	0	0	0	30	0	0	0	20	0	0	0	0	0	0	Plant response rating, Foxtail, Giant ([11]; 125 g ai/ha): 0; Plant response rating, Foxtail, Giant ([11]; 500 g ai/ha): 20; Plant response rating, Pigweed ([12]; 125 g ai/ha): 0; Plant response rating, Pigweed ([12]; 500 g ai/ha): 0; Plant response rating, Blackgrass ([13]; 125 g ai/ha): 0; Plant response rating, Blackgrass ([13]; 500 g ai/ha): 0; Plant response rating, Galium ([14]; 125 g ai/ha): 0; Plant response rating, Galium ([14]; 500 g ai/ha): 0; Plant response rating, Wheat ([15]; 125 g ai/ha): 0; Plant response rating, Wheat ([15]; 500 g ai/ha): 0; Plant response rating, Corn (corn (Zea mays); 125 g ai/ha): 0; Plant response rating, Corn (corn (Zea mays); 500 g ai/ha): 0
O=C1NCC(c2cccc(Cn3cncn3)c2)C1C(=O)Nc1cccc(F)c1F (centres unmarked) [Compound 32]	0	0	0	0	0	0	0	0	0	40	0	0	0	10	0	0	0	0	0	0	Plant response rating, Foxtail, Giant ([11]; 125 g ai/ha): 0; Plant response rating, Foxtail, Giant ([11]; 500 g ai/ha): 20; Plant response rating, Pigweed ([12]; 125 g ai/ha): 0; Plant response rating, Pigweed ([12]; 500 g ai/ha): 0; Plant response rating, Blackgrass ([13]; 125 g ai/ha): 0; Plant response rating, Blackgrass ([13]; 500 g ai/ha): 0; Plant response rating, Galium ([14]; 125 g ai/ha): 0; Plant response rating, Galium ([14]; 500 g ai/ha): 40; Plant response rating, Wheat ([15]; 125 g ai/ha): 0; Plant response rating, Wheat ([15]; 500 g ai/ha): 0; Plant response rating, Corn (corn (Zea mays); 125 g ai/ha): 0; Plant response rating, Corn (corn (Zea mays); 500 g ai/ha): 0
O=C1NCC(c2cccc(Cn3cccn3)c2)C1C(=O)Nc1cccc(F)c1F (centres unmarked) [Compound 30]	0	50	0	0	0	0	0	0	20	90	0	0	20	60	0	0	0	0	0	0	Plant response rating, Foxtail, Giant ([11]; 125 g ai/ha): 30; Plant response rating, Foxtail, Giant ([11]; 500 g ai/ha): 50; Plant response rating, Pigweed ([12]; 125 g ai/ha): 0; Plant response rating, Pigweed ([12]; 500 g ai/ha): 0; Plant response rating, Blackgrass ([13]; 125 g ai/ha): 0; Plant response rating, Blackgrass ([13]; 500 g ai/ha): 0; Plant response rating, Galium ([14]; 125 g ai/ha): 0; Plant response rating, Galium ([14]; 500 g ai/ha): 0; Plant response rating, Wheat ([15]; 125 g ai/ha): 0; Plant response rating, Wheat ([15]; 500 g ai/ha): 0; Plant response rating, Corn (corn (Zea mays); 125 g ai/ha): 0; Plant response rating, Corn (corn (Zea mays); 500 g ai/ha): 0
